# Assay results as given in patent US20090264384A1, “INDOLE, BENZIMIDAZOLE, AND BENZOLACTAM BORONIC ACID COMPOUNDS, ANALOGS THEREOF AND METHODS OF USE THEREOF” (Nuada, Inc., priority 2004, published 2009).
# How the values were obtained:
# [1] = target: Ca^2+ channel (L, verapamil site) (phenylalkylamines); test: Ca^2+ channel (L, verapamil site) binding assay; design: species or system rat
# DA transporter(h) = target: T1, DA transporter(h) (Homo sapiens, UniProt Q01959); test: DA transporter(h) binding assay
# T1 construct: expressed in transfected cells; host or cells: CHO cells
# T1 sequence (Q01959 whole entry): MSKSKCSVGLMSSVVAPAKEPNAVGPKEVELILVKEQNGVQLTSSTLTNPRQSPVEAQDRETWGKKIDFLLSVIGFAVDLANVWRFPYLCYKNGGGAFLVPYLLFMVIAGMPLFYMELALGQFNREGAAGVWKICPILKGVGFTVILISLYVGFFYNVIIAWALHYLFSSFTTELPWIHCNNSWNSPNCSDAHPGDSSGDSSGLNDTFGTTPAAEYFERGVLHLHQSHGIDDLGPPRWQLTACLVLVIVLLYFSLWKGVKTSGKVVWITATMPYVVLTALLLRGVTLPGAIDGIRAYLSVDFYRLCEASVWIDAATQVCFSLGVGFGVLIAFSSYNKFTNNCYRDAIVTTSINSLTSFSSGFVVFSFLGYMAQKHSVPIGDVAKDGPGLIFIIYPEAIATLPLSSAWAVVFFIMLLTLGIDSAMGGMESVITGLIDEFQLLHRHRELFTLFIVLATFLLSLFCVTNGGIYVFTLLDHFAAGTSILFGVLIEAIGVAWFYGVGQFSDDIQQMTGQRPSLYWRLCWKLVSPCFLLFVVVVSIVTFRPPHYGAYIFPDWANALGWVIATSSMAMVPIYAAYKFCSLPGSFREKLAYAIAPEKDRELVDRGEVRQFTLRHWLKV
# Tyrosine hydroxylase = target: T2, Tyrosine hydroxylase (Rattus norvegicus, UniProt P04177); test: Tyrosine hydroxylase enzyme assay; assay type: biochemical; settings: Tyrosine hydroxylase
# T2 construct: rat striatum; from tissue; host or cells: rat striatum
# T2 sequence (P04177 whole entry): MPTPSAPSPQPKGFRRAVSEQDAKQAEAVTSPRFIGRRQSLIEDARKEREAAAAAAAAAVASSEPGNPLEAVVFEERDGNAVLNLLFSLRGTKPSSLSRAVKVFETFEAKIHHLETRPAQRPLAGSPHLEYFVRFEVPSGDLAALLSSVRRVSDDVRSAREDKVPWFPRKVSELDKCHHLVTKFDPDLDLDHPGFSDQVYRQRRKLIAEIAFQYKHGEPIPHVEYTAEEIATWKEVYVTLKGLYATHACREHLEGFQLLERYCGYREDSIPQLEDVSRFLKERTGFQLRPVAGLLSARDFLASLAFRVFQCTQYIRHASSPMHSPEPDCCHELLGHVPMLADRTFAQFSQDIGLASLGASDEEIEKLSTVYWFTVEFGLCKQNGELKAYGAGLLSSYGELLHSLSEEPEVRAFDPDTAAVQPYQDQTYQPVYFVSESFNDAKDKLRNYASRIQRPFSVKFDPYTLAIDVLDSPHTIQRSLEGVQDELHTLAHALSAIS
# Phosphodiesterase 2(h) = target: T3, Phosphodiesterase 2(h) (Homo sapiens, UniProt O00408); test: Phosphodiesterase 2(h) enzyme assay; assay type: biochemical; settings: Phosphodiesterase 2(h)
# T3 construct: differentiated U-; endogenous in cells; host or cells: differentiated U-937 cells
# T3 sequence (O00408 whole entry): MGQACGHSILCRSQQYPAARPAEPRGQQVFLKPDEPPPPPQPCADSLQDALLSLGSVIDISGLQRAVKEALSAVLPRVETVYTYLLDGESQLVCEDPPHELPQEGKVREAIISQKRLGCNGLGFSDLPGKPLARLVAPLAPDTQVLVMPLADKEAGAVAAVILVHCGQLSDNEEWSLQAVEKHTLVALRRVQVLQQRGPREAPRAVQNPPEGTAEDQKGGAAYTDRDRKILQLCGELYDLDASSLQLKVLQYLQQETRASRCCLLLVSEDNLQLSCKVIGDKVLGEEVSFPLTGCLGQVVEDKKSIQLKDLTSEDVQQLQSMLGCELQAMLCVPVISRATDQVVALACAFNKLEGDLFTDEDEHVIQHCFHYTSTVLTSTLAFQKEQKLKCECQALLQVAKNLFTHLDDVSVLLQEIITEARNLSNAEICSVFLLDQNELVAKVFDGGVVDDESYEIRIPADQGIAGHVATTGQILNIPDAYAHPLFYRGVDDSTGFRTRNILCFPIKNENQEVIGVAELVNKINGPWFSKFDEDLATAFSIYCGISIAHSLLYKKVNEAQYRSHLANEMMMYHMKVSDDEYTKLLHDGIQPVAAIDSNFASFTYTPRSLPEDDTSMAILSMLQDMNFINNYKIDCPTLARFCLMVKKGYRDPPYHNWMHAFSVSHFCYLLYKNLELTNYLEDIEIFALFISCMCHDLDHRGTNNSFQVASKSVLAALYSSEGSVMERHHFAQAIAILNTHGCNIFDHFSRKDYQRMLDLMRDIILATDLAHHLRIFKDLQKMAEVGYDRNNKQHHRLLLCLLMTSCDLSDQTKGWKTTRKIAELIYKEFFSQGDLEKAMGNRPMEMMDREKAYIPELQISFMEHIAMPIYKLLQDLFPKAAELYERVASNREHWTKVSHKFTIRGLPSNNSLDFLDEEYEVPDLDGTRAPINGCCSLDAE
# GABA (non-selective) = assay type: binding, rat; settings: Hill coefficient, reference compound
# σ (non-selective) = σ (non-selective) binding assay; design: species or system rat
# β1(h) = target: T4, β1(h) (Homo sapiens, UniProt P08588); test: β1(h) binding assay; settings: Hill coefficient, reference compound
# T4 construct: expressed in transfected cells; host or cells: HEK-293 cells
# ATPase (Na^+/K^+) = target: T5, ATPase (Na^+/K^+) (Canis lupus familiaris, UniProt P50997); test: ATPase (Na^+/K^+) enzyme assay; assay type: biochemical, dog; settings: ATPase (Na^+/K^+)
# T5 construct: dog kidney; from tissue; host or cells: dog kidney
# GABA transaminase = target: T6, GABA transaminase (Rattus norvegicus, UniProt P50554); test: GABA transaminase enzyme assay; assay type: biochemical; settings: GABA transaminase
# T6 construct: rat brain; from tissue; host or cells: rat brain
# T6 sequence (P50554 28-500): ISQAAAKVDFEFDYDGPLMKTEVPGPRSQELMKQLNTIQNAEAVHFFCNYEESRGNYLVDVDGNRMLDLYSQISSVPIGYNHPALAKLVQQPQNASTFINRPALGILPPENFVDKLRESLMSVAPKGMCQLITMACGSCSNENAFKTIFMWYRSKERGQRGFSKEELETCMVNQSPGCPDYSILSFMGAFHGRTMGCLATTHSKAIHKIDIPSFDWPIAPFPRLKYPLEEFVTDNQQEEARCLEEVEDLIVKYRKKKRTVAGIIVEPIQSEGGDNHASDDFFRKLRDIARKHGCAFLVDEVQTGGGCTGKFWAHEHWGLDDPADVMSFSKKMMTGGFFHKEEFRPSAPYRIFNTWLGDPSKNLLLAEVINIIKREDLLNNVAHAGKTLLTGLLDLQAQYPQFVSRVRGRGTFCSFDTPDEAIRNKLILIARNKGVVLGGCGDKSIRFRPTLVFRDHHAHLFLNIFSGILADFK
# K^+V channel = K^+V channel binding assay; design: species or system rat
# V2(h) = target: T7, V2(h) (Homo sapiens, UniProt P30518); test: V2(h) binding assay
# T7 construct: expressed in transfected cells; host or cells: CHO cells
# NE transporter(h) = target: T8, NE transporter(h) (Homo sapiens, UniProt P23975); test: NE transporter(h) binding assay; settings: Hill coefficient, reference compound
# T8 construct: expressed in transfected cells; host or cells: MDCK cells
# Androgen(h) (AR) = target: T9, Androgen(h) (AR) (Homo sapiens, UniProt P10275, T878A); test: Androgen(h) (AR) binding assay
# T9 construct: LNCaP cells; endogenous in cells; host or cells: LNCaP cells (cytosol)
# T9 sequence (P10275 whole entry T878A): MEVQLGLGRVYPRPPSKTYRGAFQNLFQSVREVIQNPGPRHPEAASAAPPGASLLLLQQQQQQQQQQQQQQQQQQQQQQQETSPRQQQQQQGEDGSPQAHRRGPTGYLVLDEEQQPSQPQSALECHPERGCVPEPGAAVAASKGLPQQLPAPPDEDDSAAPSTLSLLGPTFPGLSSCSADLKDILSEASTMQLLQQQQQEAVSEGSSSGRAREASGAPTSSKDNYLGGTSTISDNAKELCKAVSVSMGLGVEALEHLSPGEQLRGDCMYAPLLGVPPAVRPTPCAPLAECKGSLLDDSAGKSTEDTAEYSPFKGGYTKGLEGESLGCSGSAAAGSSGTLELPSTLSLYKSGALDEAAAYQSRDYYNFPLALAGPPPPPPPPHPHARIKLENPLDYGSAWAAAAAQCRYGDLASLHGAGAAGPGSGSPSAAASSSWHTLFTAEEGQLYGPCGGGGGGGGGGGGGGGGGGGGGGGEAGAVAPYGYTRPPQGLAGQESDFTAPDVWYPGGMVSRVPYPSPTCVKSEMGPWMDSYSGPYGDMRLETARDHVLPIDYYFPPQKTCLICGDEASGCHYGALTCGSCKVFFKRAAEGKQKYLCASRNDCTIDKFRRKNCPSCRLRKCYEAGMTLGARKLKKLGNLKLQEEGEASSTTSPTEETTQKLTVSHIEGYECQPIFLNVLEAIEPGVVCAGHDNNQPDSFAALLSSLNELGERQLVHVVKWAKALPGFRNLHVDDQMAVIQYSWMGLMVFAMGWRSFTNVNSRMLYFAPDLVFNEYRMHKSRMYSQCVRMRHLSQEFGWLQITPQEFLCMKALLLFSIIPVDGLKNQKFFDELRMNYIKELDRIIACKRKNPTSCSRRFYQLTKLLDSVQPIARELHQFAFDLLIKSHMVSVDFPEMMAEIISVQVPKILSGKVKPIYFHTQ
# Cl-channel = Cl-channel binding assay; design: species or system rat; settings: Hill coefficient, reference compound
# NK2(h) = target: T10, NK2(h) (Homo sapiens, UniProt P21452); test: NK2(h) binding assay
# T10 construct: expressed in transfected cells; host or cells: CHO cells
# AT2(h) = target: T11, AT2(h) (Homo sapiens, UniProt P50052); test: AT2(h) binding assay; settings: Hill coefficient, reference compound
# T11 construct: expressed in transfected cells; host or cells: Hela cells
# AT1(h) = target: T12, AT1(h) (Homo sapiens, UniProt P30556); test: AT1(h) binding assay; settings: Hill coefficient, reference compound
# T12 construct: expressed in transfected cells; host or cells: CHO cells
# T12 sequence (P30556 whole entry): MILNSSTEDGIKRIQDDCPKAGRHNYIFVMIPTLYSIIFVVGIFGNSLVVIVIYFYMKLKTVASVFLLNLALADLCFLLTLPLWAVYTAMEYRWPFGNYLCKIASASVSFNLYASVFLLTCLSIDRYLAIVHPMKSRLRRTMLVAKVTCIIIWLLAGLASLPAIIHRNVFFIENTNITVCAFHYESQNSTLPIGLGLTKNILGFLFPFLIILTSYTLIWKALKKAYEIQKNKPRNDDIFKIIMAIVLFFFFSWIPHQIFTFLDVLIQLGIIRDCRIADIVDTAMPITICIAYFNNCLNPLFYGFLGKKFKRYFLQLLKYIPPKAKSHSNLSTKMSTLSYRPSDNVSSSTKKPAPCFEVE
# Choline transporter = target: T13, Choline transporter (Rattus norvegicus, UniProt Q9JMD7); test: Choline transporter binding assay; settings: reference compound
# T13 construct: rat striatum; from tissue; host or cells: rat striatum
# T13 sequence (Q9JMD7 1-580): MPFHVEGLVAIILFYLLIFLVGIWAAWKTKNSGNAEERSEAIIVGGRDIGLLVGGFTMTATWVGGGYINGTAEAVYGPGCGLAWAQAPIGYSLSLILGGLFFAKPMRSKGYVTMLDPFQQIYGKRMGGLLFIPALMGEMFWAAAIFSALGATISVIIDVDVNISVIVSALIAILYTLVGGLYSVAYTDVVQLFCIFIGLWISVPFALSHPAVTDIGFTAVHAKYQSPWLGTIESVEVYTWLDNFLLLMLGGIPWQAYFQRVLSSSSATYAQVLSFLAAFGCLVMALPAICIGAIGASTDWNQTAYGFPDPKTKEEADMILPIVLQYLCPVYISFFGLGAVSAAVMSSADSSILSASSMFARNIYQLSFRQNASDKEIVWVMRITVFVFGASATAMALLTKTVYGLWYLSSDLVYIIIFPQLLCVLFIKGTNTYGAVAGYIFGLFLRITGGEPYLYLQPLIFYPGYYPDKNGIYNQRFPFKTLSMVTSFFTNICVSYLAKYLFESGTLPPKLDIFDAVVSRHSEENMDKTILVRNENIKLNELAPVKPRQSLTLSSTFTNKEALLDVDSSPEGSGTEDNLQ
# 5-HT transporter(h) = target: T14, 5-HT transporter(h) (Homo sapiens, UniProt P31645); test: 5-HT transporter(h) binding assay; settings: Hill coefficient, reference compound
# T14 construct: expressed in transfected cells; host or cells: HEK-293 cells
# D2S(h) = target: T15, D2S(h) (Homo sapiens, UniProt P14416); test: biochemical; assay type: binding
# T15 construct: expressed in transfected cells; host or cells: CHO cells
# B2(h) = target: T16, B2(h) (Homo sapiens, UniProt P30411); test: B2(h) binding assay
# T16 construct: expressed in transfected cells; host or cells: CHO cells
# T16 sequence (P30411 whole entry): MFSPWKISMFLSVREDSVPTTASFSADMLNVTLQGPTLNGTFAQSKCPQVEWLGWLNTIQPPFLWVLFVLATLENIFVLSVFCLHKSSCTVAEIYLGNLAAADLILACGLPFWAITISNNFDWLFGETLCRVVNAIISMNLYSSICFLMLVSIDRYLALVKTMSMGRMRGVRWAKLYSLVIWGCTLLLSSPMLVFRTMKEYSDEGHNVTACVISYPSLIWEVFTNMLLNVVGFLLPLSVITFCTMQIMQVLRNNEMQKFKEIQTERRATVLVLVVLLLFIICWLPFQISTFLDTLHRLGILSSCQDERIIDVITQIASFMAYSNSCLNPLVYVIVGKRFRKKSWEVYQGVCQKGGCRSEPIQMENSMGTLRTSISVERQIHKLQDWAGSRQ
# 5-HT (non-selective) = 5-HT (non-selective) binding assay; design: species or system rat; settings: Hill coefficient, reference compound
# TRH = TRH binding assay; design: species or system rat; settings: reference compound
# NK1(h) = target: T17, NK1(h) (Homo sapiens, UniProt P25103); test: NK1(h) binding assay; settings: Hill coefficient, reference compound
# T17 construct: NK1(h); U-373MG cells; [Sar^9,Met(O2)^11]-SP; Heuillet et al. (1993); endogenous in cells; host or cells: U-373MG cells
# H2(h) = target: T18, H2(h) (Homo sapiens, UniProt P25021); test: H2(h) binding assay; settings: Hill coefficient, reference compound
# T18 construct: expressed in transfected cells; host or cells: CHO cells
# T18 sequence (P25021 whole entry): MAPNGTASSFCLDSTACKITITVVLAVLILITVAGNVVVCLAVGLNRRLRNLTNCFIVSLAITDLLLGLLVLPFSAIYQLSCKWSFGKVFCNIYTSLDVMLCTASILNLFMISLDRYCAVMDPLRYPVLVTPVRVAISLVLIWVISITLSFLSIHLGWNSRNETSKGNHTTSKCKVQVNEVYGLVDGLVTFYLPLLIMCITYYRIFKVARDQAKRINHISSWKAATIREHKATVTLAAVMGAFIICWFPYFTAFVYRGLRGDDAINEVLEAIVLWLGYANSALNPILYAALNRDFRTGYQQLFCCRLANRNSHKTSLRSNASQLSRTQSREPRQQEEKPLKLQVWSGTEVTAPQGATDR
# M (non-selective) = M (non-selective) binding assay; design: species or system rat
# CRF1 = target: T19, CRF1 (Rattus norvegicus, UniProt P35353); test: CRF1 binding assay; settings: Hill coefficient, reference compound
# T19 construct: from tissue; host or cells: rat pituitary gland
# BZD (central) = BZD (central) binding assay; design: species or system rat; settings: Hill coefficient, reference compound
# ETA(h) = target: T20, ETA(h) (Homo sapiens, UniProt P25101); test: ETA(h) binding assay
# T20 construct: expressed in transfected cells; host or cells: CHO cells
# Y (non-selective) = Y (non-selective) binding assay; design: species or system rat; settings: reference compound
# [2] = target: N (neuronal) (α-BGTX-insensitive) (Rattus norvegicus, UniProt P09483+P12390); test: N (neuronal) (α-BGTX-insensitive) binding assay; settings: Hill coefficient, reference compound
# ETB(h) = target: T21, ETB(h) (Homo sapiens, UniProt P24530); test: ETB(h) binding assay; settings: Hill coefficient, reference compound
# T21 construct: expressed in transfected cells; host or cells: CHO cells
# [3] = target: Ca^2+ channel (L, diltiazem site) (benzothiazepines) (Rattus norvegicus, UniProt P22002); test: Ca^2+ channel (L, diltiazem site) binding assay
# H3 = H3 binding assay; design: species or system rat
# NK3(h) = target: T22, NK3(h) (Homo sapiens, UniProt P29371); test: NK3(h) binding assay; settings: Hill coefficient, reference compound
# T22 construct: expressed in transfected cells; host or cells: CHO cells
# T22 sequence (P29371 whole entry): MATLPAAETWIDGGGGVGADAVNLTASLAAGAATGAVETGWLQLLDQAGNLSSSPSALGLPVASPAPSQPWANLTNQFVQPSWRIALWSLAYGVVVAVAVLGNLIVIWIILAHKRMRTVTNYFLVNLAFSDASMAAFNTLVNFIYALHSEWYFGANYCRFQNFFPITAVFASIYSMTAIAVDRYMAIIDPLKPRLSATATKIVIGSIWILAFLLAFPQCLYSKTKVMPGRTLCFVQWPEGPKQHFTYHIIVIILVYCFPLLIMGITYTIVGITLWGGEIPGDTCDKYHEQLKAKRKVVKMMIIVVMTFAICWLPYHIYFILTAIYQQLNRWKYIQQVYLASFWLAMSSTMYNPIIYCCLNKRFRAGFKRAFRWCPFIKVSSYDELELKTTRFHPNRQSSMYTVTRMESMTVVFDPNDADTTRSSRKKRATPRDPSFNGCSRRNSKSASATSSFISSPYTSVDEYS
molecule,measurement,setting,value
COc1ccc(CCN(C)CCCC(C#N)(c2cc(OC)c(OC)c(OC)c2)C(C)C)cc1OC (stereo not shown) [D 600],Ki,[1],0.00084 µM
same,nH,[1],0.6
"c1ccc2sc(C3(N4CCCCC4)CCCCC3)cc2c1 [BTCP, reference compound]",nH,DA transporter(h),0.5
N[C@@H](Cc1ccc(O)c(I)c1)C(=O)O [3-iodo L-tyrosine],nH,Tyrosine hydroxylase; Hill coefficient,1.1
same,IC50,Tyrosine hydroxylase; reference compound,0.99 µM
CCCCCC[C@@H]([C@@H](C)O)n1cnc2c(N)ncnc21 (racemic) [EHNA],nH,Phosphodiesterase 2(h); Hill coefficient,0.4
same,IC50,Phosphodiesterase 2(h); reference compound,4.1 µM
"NCCCC(=O)O [GAGA, GABA, reference compound]",nH,GABA (non-selective),1.3
"O=C(CCCN1CCC(O)(c2ccc(Cl)cc2)CC1)c1ccc(F)cc1 [haloperidol, reference compound]",nH,σ (non-selective),0.6
"CC(C)NCC(O)COc1ccc(CC(N)=O)cc1 (stereo not shown) [atenolol, reference compound]",nH,β1(h),0.7
C[C@@H]1O[C@@H](O[C@H]2C[C@@H](O)[C@]3(CO)[C@H]4[C@H](O)C[C@]5(C)[C@@H](C6=CC(=O)OC6)CC[C@]5(O)[C@@H]4CC[C@]3(O)C2)[C@H](O)[C@H](O)[C@H]1O [ouabain],nH,ATPase (Na^+/K^+); Hill coefficient,1.2
same,IC50,ATPase (Na^+/K^+); reference compound,0.92 µM
NOCC(=O)O [AoAA],nH,GABA transaminase; Hill coefficient,1.1
same,IC50,GABA transaminase; reference compound,0.21 µM
α-dendrotoxin,Ki,K^+V channel,0.0011 µM
same,nH,K^+V channel,3.1
AVP [reference compound],nH,V2(h),0.9
"CNCCCC1c2ccccc2C=Cc2ccccc21 [protriptyline, reference compound]",nH,NE transporter(h),1.7
"C[C@]1(O)CC[C@H]2[C@@H]3CCC4=CC(=O)CCC4=C3C=C[C@@]21C [methyltrienolone, reference compound]",nH,Androgen(h) (AR),1.5
"C=C(C)[C@@H]1[C@H]2OC(=O)[C@@H]1[C@]1(O)C[C@H]3O[C@]34C(=O)O[C@H]2[C@]14C [picrotoxinin, reference compound]",nH,Cl-channel,0.9
[N1e^10]-NKA(4-10) [reference compound],nH,NK2(h),0.7
"CNCC(=O)N[C@@H](CCCN=C(N)N)C(=O)N[C@H](C(=O)N[C@@H](Cc1ccc(O)cc1)C(=O)N[C@H](C(=O)N[C@@H](Cc1cnc[nH]1)C(=O)N1CCC[C@H]1C(=O)N[C@@H](C)C(=O)O)C(C)C)C(C)C [saralasin, reference compound]",nH,AT2(h),0.8
same,nH,AT1(h),1.1
C[N+]1(C)CCOC(O)(c2ccc(-c3ccc(C4(O)C[N+](C)(C)CCO4)cc3)cc2)C1.[Br-].[Br-] (stereo not shown) [hemicholinium-3],nH,Choline transporter; Hill coefficient,0.7
same,IC50,Choline transporter,0.008 µM
same,Ki,Choline transporter; Cheng Prusoff,0.0055 µM
"CN(C)CCCN1c2ccccc2CCc2ccccc21 [imipramine, reference compound]",nH,5-HT transporter(h),1.0
(+)butaclamol [reference compound],nH,D2S(h),1.2
NPC 567 [reference compound],nH,B2(h),0.6
"NCCc1c[nH]c2ccc(O)cc12 [serotonin, reference compound]",nH,5-HT (non-selective),0.9
TRH,nH,TRH; Hill coefficient,0.9
same,IC50,TRH,0.049 µM
same,Ki,TRH; Cheng Prusoff,0.03 µM
"[Sar^9,Met(O2)^11]-SP [reference compound]",nH,NK1(h),0.9
"CN/C(=N/CCSCc1nc[nH]c1C)NC#N [cimetidine, reference compound]",nH,H2(h),0.9
"CN1[C@@H]2CC[C@H]1C[C@@H](OC(=O)C(CO)c1ccccc1)C2 (stereo partly shown) [atropine, reference compound]",nH,M (non-selective),1.2
"CC[C@H](C)[C@H](NC(=O)[C@@H](NC(=O)[C@H](CCC(=O)O)NC(=O)[C@H](CCSC)NC(=O)[C@H](CC(C)C)NC(=O)[C@H](CCCCN)NC(=O)[C@H](CCCNC(=N)N)NC(=O)[C@H](CC(N)=O)NC(=O)[C@H](CO)NC(=O)[C@H](Cc1c[nH]cn1)NC(=O)[C@H](C)NC(=O)[C@H](CCC(N)=O)NC(=O)[C@H](CCC(N)=O)NC(=O)[C@H](C)NC(=O)[C@H](CC(C)C)NC(=O)[C@H](CCC(N)=O)NC(=O)[C@H](CCC(=O)O)NC(=O)[C@H](C)NC(=O)[C@H](CCCNC(=N)N)NC(=O)[C@H](C)NC(=O)[C@H](CCSC)NC(=O)[C@H](CCC(=O)O)NC(=O)[C@H](CC(C)C)NC(=O)[C@@H](NC(=O)[C@H](CCC(=O)O)NC(=O)[C@H](CCCNC(=N)N)NC(=O)[C@H](CC(C)C)NC(=O)[C@H](CC(C)C)NC(=O)[C@H](Cc1c[nH]cn1)NC(=O)[C@H](Cc1ccccc1)NC(=O)[C@@H](NC(=O)[C@H](CC(C)C)NC(=O)[C@H](CC(=O)O)NC(=O)[C@H](CC(C)C)NC(=O)[C@H](CO)NC(=O)[C@@H](NC(=O)[C@@H]1CCCN1C(=O)[C@@H]1CCCN1C(=O)[C@H](CCC(=O)O)NC(=O)[C@H](CCC(=O)O)NC(=O)[C@@H](N)CO)[C@@H](C)CC)[C@@H](C)O)C(C)C)[C@@H](C)CC)C(N)=O [CRF, reference compound]",nH,CRF1,0.6
"CN1C(=O)CN=C(c2ccccc2)c2cc(Cl)ccc21 [diazepam, reference compound]",nH,BZD (central),1.2
"endothelin-1 [endothelia-1, reference compound]",nH,ETA(h),1.1
NPY,nH,Y (non-selective); Hill coefficient,1.3
same,IC50,Y (non-selective),0.00099 µM
"CN1CCCC1c1cccnc1 (stereo not shown) [nicotine, reference compound]",nH,[2],1.1
"endothelin-3 [endothelia-3, reference compound]",nH,ETB(h),2.4
"COc1ccc([C@@H]2Sc3ccccc3N(CCN(C)C)C(=O)[C@@H]2OC(C)=O)cc1 [diltiazem, reference compound]",nH,[3],0.9
"C[C@@H](N)Cc1cnc[nH]1 [(R)a-Me-histamine, (R)α-Me-histamine, reference compound]",nH,H3,1.0
"CC[C@H](NC(=O)c1c(C)c(-c2ccccc2)nc2ccccc12)c1ccccc1 [SB 222200, reference compound]",nH,NK3(h),1.1
